Test systems include Proteus vulgaris; Escherichia coli; Botrytis cinerea; Salmonella typhimurium; Saccharomyces cerevisiae; Pseudomonas aeruginosa; Fusarium verticillioides; Trichosporon beigelii; Staphylococcus aureus; Bacillus subtilis; Candida krusei CBS 573.
Common to all, as to assay: ≥ marks a high value that may be exact or a test limit, other limits are often not marked, values filed in µg/mL are converted to µM
Assay [1] concerns Staphylococcus epidermidis.
The test system of assay [2] is Candida albicans KCTC 7270.
Assay [3] deals with Listeria monocytogenes KCTC 3710.
Assay [4] deals with Escherichia coli O157:H7 ATCC 43895.
Assay [5] concerns Aspergillus fumigatus KCTC 6145.
The test system of assay [6] is Aspergillus flavus KCTC 9471.
For assay [7], the system named is Candida albicans ATCC 10231.
The test system of assay [8] is Saccharomyces cerevisiae SZMC 0644.
Assay [9] has as its system Candida parapsilosis CBS 604.
Assay [10] deals with Xanthomonas axonopodis pv. glycines.
In assay [11] the test system is Escherichia coli ATCC 25922.
Assay [12] concerns Staphylococcus aureus ATCC 25923.
Assay [13] deals with Enterococcus faecalis ATCC 29212.
Assay [14] concerns Staphylococcus aureus ATCC 29213.
For assay [15], the system named is Staphylococcus aureus ATCC 6538P.
Assay [16] relates to Staphylococcus aureus WKZ-2.
Assay [17] has as its system Pseudomonas aeruginosa PAO1.
Assay [18] relates to Klebsiella pneumoniae ATCC 700603.
In assay [19] the test system is Bacillus subtilis subsp. spizizenii.
Assay [20] relates to Staphylococcus epidermidis ATCC 12228.
The test system of assay [21] is Staphylococcus aureus ATCC BAA-41.
The subject of assay [22] is Enterococcus faecalis ATCC BAA-2365.
Assay [23] deals with Staphylococcus aureus ATCC 43300.
Assay [24] deals with Enterococcus faecalis ATCC BAA-2316.
Assay [25] deals with Klebsiella pneumoniae ATCC 13883.
Assay [26] deals with Escherichia coli ATCC BAA-2452.
The test system of assay [27] is Pseudomonas aeruginosa ATCC 27853.
Assay [28] relates to Staphylococcus aureus ATCC 33591.
For assay [29], the system named is Enterococcus faecalis ATCC 19433.
Assay [30] concerns Acinetobacter baumannii ATCC 19606.
For assay [31], the system named is Pseudomonas aeruginosa ATCC BAA-2114.

Values after ≈ are worked out from the molar mass of the structure shown.

One may read the MIC as the lowest concentration found to suppress growth. Regarding `CC[C@H](C)[C@H](NC(=O)[C@H](CCCCN)NC(=O)[C@H](CO)NC(=O)[C@H](Cc1ccccc1)NC(=O)[C@H](CC(C)C)NC(=O)[C@H](CCCCN)NC(=O)[C@H](CCC(=O)O)NC(=O)[C@H](CC(C)C)NC(=O)[C@H](CCCN=C(N)N)NC(=O)[C@H](CCCCN)NC(=O)[C@H](CO)NC(=O)[C@@H](NC(=O)[C@H](CCCCN)NC(=O)[C@H](CCCCN)NC(=O)[C@H](C)N)C(C)C)C(=O)N[C@@H](CCC(N)=O)C(=O)N[C@@H](CC(N)=O)C(=O)N[C@@H](CC(=O)O)C(=O)N[C@@H](CCCCN)C(N)=O` [AKKVSKRLEKLFSKIQNDK], the MIC in the assay on Proteus vulgaris is 12.5 µM (≈ 28.2 µg/mL); with Escherichia coli, 6.25 µM (≈ 14.1 µg/mL); in [1], 12.5 µM (≈ 28.2 µg/mL); with Botrytis cinerea, at least 50 µM; against Salmonella typhimurium, 12.5 µM (≈ 28.2 µg/mL); against Saccharomyces cerevisiae, 25 µM (≈ 56.5 µg/mL). Also, the MIC against Pseudomonas aeruginosa was 12.5 µM (≈ 28.2 µg/mL); in [2], 25 µM (≈ 56.5 µg/mL); against Fusarium verticillioides, at least 50 µM; against Trichosporon beigelii, 12.5 µM (≈ 28.2 µg/mL); in [3], 12.5 µM (≈ 28.2 µg/mL); in assay [4], 6.25 µM (≈ 14.1 µg/mL). For the same compound, the MIC was at least 50 µM in [5], at least 50 µM in [6], above 12.5 µM in the assay with Staphylococcus aureus and 3.13 µM (≈ 7.07 µg/mL) against Bacillus subtilis.

As to `CC[C@H](C)[C@H](NC(=O)[C@@H]1CSSC[C@H](NC(=O)[C@H](CCCCN)NC(=O)CN)C(=O)N[C@@H](CCC(=O)O)C(=O)N[C@@H](Cc2c[nH]c3ccccc23)C(=O)N[C@@H](CCC(N)=O)C(=O)NCC(=O)NCC(=O)N[C@@H](CCC(N)=O)C(=O)N[C@@H](CC(C)C)C(=O)N[C@@H](CC(N)=O)C(=O)N1)C(=O)N[C@@H](C)C(=O)N[C@H](C(=O)O)[C@@H](C)O` [GKCEWQGGQLNCIAT], the minimum inhibitory concentration (MIC) in assay [7] was above 62.2 µM; in assay [8], at least 62.2 µM; in assay [9] it was at least 62.2 µM; with Candida krusei CBS 573, at least 62.2 µM.

In the case of `CC[C@H](C)[C@H](NC(=O)[C@@H](NC(=O)[C@H](CO)NC(=O)[C@H](Cc1c[nH]c2ccccc12)NC(=O)[C@H](CC(C)C)NC(=O)CN)[C@@H](C)O)C(=O)N[C@@H](CCCCN)C(=O)N[C@@H](CC(N)=O)C(=O)N[C@H](C(=O)N[C@@H](C)C(=O)N[C@@H](C)C(=O)N[C@@H](C)C(=O)N[C@@H](C)C(=O)NCC(=O)N[C@@H](CCCCN)C(=O)N[C@@H](C)C(=O)N[C@@H](C)C(=O)N[C@@H](CC(C)C)C(=O)NCC(=O)N[C@@H](C)C(=O)N[C@@H](CC(C)C)C(N)=O)C(C)C` [GLWSTIKNVAAAAGKAALGAL], the MIC in assay [10] came to 2 µM (≈ 3.96 µg/mL); in [11], 17.8 µM (≈ 35.3 µg/mL); in assay [12], 32.3 µM (≈ 64 µg/mL).

As to `CC[C@H](C)[C@H](N)C(=O)N[C@@H](CCCCN)C(=O)N[C@@H](Cc1ccc(O)cc1)C(=O)N[C@@H](CC(C)C)C(=O)N[C@@H](CC(C)C)C(=O)N[C@H](C(=O)N[C@@H](CCCCN)C(=O)N[C@@H](CC(C)C)C(=O)N[C@@H](CCC(N)=O)C(=O)NCC(=O)N[C@@H](C)C(=O)N[C@@H](CO)C(=O)N[C@@H](CCC(N)=O)C(=O)N[C@@H](CCCCN)C(=O)N[C@H](C(=O)N[C@H](C(=O)N[C@H](C(=O)N[C@@H](CC(C)C)C(=O)N[C@@H](CCSC)C(=O)N[C@@H](CC(C)C)C(=O)N[C@@H](CCCN=C(N)N)C(=O)N[C@@H](CCCN=C(N)N)C(=O)N[C@@H](CC(N)=O)C(=O)O)[C@@H](C)O)[C@@H](C)CC)[C@@H](C)O)C(C)C` [IKYLLVKLQGASQKTITLMLRRN], the MIC in assay [13] was 25.3 µM (≈ 68 µg/mL); in assay [14], 3.16 µM (≈ 8.5 µg/mL); in assay [15], 6.32 µM (≈ 17 µg/mL); in assay [16], 3.16 µM (≈ 8.5 µg/mL); in [17] it was 50.6 µM (≈ 136 µg/mL); in assay [11], 12.6 µM (≈ 34 µg/mL). In addition, the MIC is 50.6 µM (≈ 136 µg/mL) in [18] and at least 50.6 µM in [19].

Regarding `CC[C@H](C)[C@H](NC(=O)[C@H](CCCN=C(N)N)NC(=O)[C@H](CCC(=O)O)NC(=O)[C@@H](NC(=O)[C@@H](NC(=O)[C@H](CCCN=C(N)N)NC(=O)[C@H](CCCCN)NC(=O)[C@H](Cc1ccccc1)NC(=O)[C@H](CCC(=O)O)NC(=O)[C@H](CCCCN)NC(=O)CNC(=O)[C@@H](NC(=O)[C@@H](NC(=O)[C@@H]1CCCN1C(=O)[C@H](CO)NC(=O)[C@H](CC(C)C)NC(=O)[C@H](CCCCN)NC(=O)[C@H](CCCCN)NC(=O)[C@H](Cc1ccccc1)NC(=O)[C@H](CC(C)C)NC(=O)[C@H](CCCCN)NC(=O)[C@H](CCCCN)NC(=O)[C@H](Cc1ccccc1)NC(=O)[C@@H](N)CCCCN)C(C)C)[C@@H](C)CC)[C@@H](C)CC)C(C)C)C(=O)N[C@@H](CCCCN)C(=O)N[C@@H](CCCN=C(N)N)C(=O)N[C@@H](Cc1ccccc1)C(=O)N[C@@H](CC(C)C)C(=O)N[C@@H](CCCN=C(N)N)C(=O)O` [KFKKLFKKLSPVIGKEFKRIVERIKRFLR], the MIC stood at 10 µM (≈ 36.3 µg/mL) in [20]; 10 µM (≈ 36.3 µg/mL) in assay [21]; 5 µM (≈ 18.2 µg/mL) in assay [22]; 20 µM (≈ 72.7 µg/mL) in [14]; 10 µM (≈ 36.3 µg/mL) in assay [23]; 5 µM (≈ 18.2 µg/mL) in [24]. In addition, the MIC turned out to be 2.5 µM (≈ 9.08 µg/mL) in assay [25]; 10 µM (≈ 36.3 µg/mL) in assay [26]; 20 µM (≈ 72.7 µg/mL) in assay [27]; 10 µM (≈ 36.3 µg/mL) in assay [11]; 10 µM (≈ 36.3 µg/mL) in assay [28]; 15 µM (≈ 54.5 µg/mL) in assay [29]. For the same compound, the MIC in assay [30] was 10 µM (≈ 36.3 µg/mL); in assay [31], 25 µM (≈ 90.8 µg/mL).

The values are drawn from DBAASP.
